Legend:
Format in all cases: in vivo
[1] = system: cotton aphid (Aphis gossvpii); assay: Insecticidal test for cotton aphid (squash cotyledon spray)
[2] = system: Sweetpotato Whitefly (Bemisia tabacia); assay: Insecticidal test for Sweetpotato Whitefly (cotton plant spray); conditions: 200 ppm spray on cotton plants, 13 days, reduction of large nymphs
[3] = system: Brown Planthopper (Nilaparvata lugens); assay: Insecticidal test for Brown Planthopper (rice seedling roots in test solution)
[4] = system: Green Leafhopper (Nephotettix cincticeps); assay: Insecticidal test for Green Leafhopper (rice seedling roots in test solution)
[5] = 50 ppm spray on infested squash cotyledons, 3 days, population reduction versus untreated
[6] = 10 ppm test solution, rice seedling roots, 3rd instar nymphs, mortality at 6 days

## C=C(C)C#Cc1sc(-c2nc(-c3c(F)cccc3Cl)nn2C)c(Cl)c1Cl [Compound 38]
[1]; [5]
  CA: activity at 50 ppm against cotton aphid (% Control rating): D (60-69)
[2]
  WF: activity at 200 ppm against whitefly (% Control rating): F (less than 50)

## CCCc1ccc(C#Cc2ccc(-c3nc(-c4c(F)cccc4Cl)nn3C)cc2)cc1 [Compound 71]
[1]; [5]
  CA: activity at 50 ppm against cotton aphid (% Control rating): A (90-100)
[2]
  WF: activity at 200 ppm against whitefly (% Control rating): F (less than 50)
[3]; [6]
  BPH: activity at 10 ppm against brown planthopper (% Control rating): F (less than 50)

## C#Cc1ccc(-c2nc(-c3c(F)cccc3Cl)nn2C)c(Cl)c1Cl [Compound 97]
[1]; 72 h, 50 ppm spray on infested squash cotyledons, 3 days, population reduction versus untreated, read-out: CA: activity at 50 ppm against cotton aphid (% Control rating)
  pest or weed control at 50 ppm: 80 to 89%
[2]; Bemisia, 312 h, read-out: WF: activity at 200 ppm against whitefly (% Control rating)
  pest or weed control at 200 ppm: < 50%

## Cc1cccc(C#Cc2sc(-c3nc(-c4c(F)cccc4Cl)nn3C)c(Cl)c2Cl)n1 [Compound 44]
[1]; [5]
  CA: activity at 50 ppm against cotton aphid (% Control rating): F (less than 50)
[2]
  WF: activity at 200 ppm against whitefly (% Control rating): F (less than 50)

## COc1ccc(C#Cc2cccc(-c3nc(-c4c(Cl)cncc4Cl)nn3C)c2)cc1 [Compound 89]
[1]; [5]
  CA: activity at 50 ppm against cotton aphid (% Control rating): B (80-89)
[2]
  WF: activity at 200 ppm against whitefly (% Control rating): F (less than 50)
[4]; [6]
  GLH: activity at 10 ppm against green leafbopper (% Control rating): F (less than 50)

## Cn1nc(-c2c(F)cccc2Cl)nc1-c1ccc(C#Cc2ccccc2)s1 [Compound 68]
[1]; [5]
  CA: activity at 50 ppm against cotton aphid (% Control rating): A (90-100)
[2]
  WF: activity at 200 ppm against whitefly (% Control rating): F (less than 50)
[4]; [6]
  GLH: activity at 10 ppm against green leafbopper (% Control rating): F (less than 50)
[3]; [6]
  BPH: activity at 10 ppm against brown planthopper (% Control rating): F (less than 50)

## CC=CC#Cc1sc(-c2nc(-c3c(F)cccc3Cl)nn2C)c(Cl)c1Cl [Compound 39]
[1]; in vivo
  CA: activity at 50 ppm against cotton aphid (% Control rating): B (key: A: 90-100; B: 80-89; C: 70-79; D: 60-69; E: 50-59; F: less than 50; G: inactive)
[4]; in vivo
  GLH: activity at 10 ppm against green leafbopper (% Control rating): F (key: A: 90-100; B: 80-89; C: 70-79; D: 60-69; E: 50-59; F: less than 50; G: inactive)
[3]; in vivo
  BPH: activity at 10 ppm against brown planthopper (% Control rating): F (key: A: 90-100; B: 80-89; C: 70-79; D: 60-69; E: 50-59; F: less than 50; G: inactive)

## Cc1cc(C#Cc2sc(-c3nc(-c4c(F)cccc4Cl)nn3C)c(Cl)c2Cl)ccn1 [Compound 57]
[2]
  WF: activity at 200 ppm against whitefly (% Control rating): F (less than 50)
[4]; [6]
  GLH: activity at 10 ppm against green leafbopper (% Control rating): F (less than 50)

## Cn1nc(-c2c(F)cccc2Cl)nc1-c1ccc(C#Cc2ccccc2F)s1 [Compound 69]
[1]; [5]
  CA: activity at 50 ppm against cotton aphid (% Control rating): E (50-59)
[2]
  WF: activity at 200 ppm against whitefly (% Control rating): F (less than 50)
[4]; [6]
  GLH: activity at 10 ppm against green leafbopper (% Control rating): F (less than 50)

## Cc1ccnc(C#Cc2sc(-c3nc(-c4c(F)cccc4Cl)nn3C)c(Cl)c2Cl)c1 [Compound 43]
[1]; [5]
  CA: activity at 50 ppm against cotton aphid (% Control rating): F (less than 50)
[2]
  WF: activity at 200 ppm against whitefly (% Control rating): F (less than 50)
[4]; [6]
  GLH: activity at 10 ppm against green leafbopper (% Control rating): F (less than 50)

## COc1ccc(C#Cc2ccc(-c3nc(-c4c(Cl)cncc4Cl)nn3C)cc2)cc1 [Compound 88]
[1]; [5]
  CA: activity at 50 ppm against cotton aphid (% Control rating): D (60-69)
[2]
  WF: activity at 200 ppm against whitefly (% Control rating): F (less than 50)
[4]; [6]
  GLH: activity at 10 ppm against green leafbopper (% Control rating): F (less than 50)

## CCCc1ccc(C#Cc2sc(-c3nc(-c4c(F)cccc4Cl)n[nH]3)c(Cl)c2Cl)cc1 [Compound 80]
[2]
  WF: activity at 200 ppm against whitefly (% Control rating): F (less than 50)

## CCOc1ccc(C#Cc2ccc(-c3nc(-c4c(F)cccc4Cl)nn3C)s2)cc1 [Compound 66]
[1]; [5]
  CA: activity at 50 ppm against cotton aphid (% Control rating): B (80-89)
[2]
  WF: activity at 200 ppm against whitefly (% Control rating): F (less than 50)
[4]; [6]
  GLH: activity at 10 ppm against green leafbopper (% Control rating): F (less than 50)

## Cc1ccncc1C#Cc1sc(-c2nc(-c3c(F)cccc3Cl)nn2C)c(Cl)c1Cl [Compound 21]
[1]; [5]
  CA: activity at 50 ppm against cotton aphid (% Control rating): F (less than 50)
[3]; [6]
  BPH: activity at 10 ppm against brown planthopper (% Control rating): F (less than 50)

## Cn1nc(-c2c(F)cccc2Cl)nc1-c1ccc(C#Cc2ccccc2)cc1 [Compound 70]
[1]; [5]
  CA: activity at 50 ppm against cotton aphid (% Control rating): C (70-79)
[2]
  WF: activity at 200 ppm against whitefly (% Control rating): F (less than 50)

Reference: US6417187B2, “1,2,4-triazole based compounds that can be used as insecticides or acaricides and processes” (Dow AgroSciences LLC, priority 2000, dated 2002)
